Source: PubChem BioAssay (NCI)
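Following 48 hours of exposure in 96-well plates, responses at five concentrations were used to interpolate endpoints linearly. Here, GI50 denotes the concentration required for 50% inhibition of growth. The concentration for full growth arrest is given as TGI.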

Columns and labels:
Assay in all cases: inhibition of tumour cell growth, NCI panel, 48 h
NCI-H460 lung = system: NCI-H460 lung
MDA-MB-231 breast = system: MDA-MB-231 breast
OVCAR-8 ovarian = system: OVCAR-8 ovarian
NCI-H522 lung = system: NCI-H522 lung
DU-145 prostate = system: DU-145 prostate
MCF7 breast = system: MCF7 breast
SNB-19 CNS = system: SNB-19 CNS
RXF 393 renal = system: RXF 393 renal
RPMI-8226 leukemia = system: RPMI-8226 leukemia
KM12 colon = system: KM12 colon
HCT-116 colon = system: HCT-116 colon
SW-620 colon = system: SW-620 colon
SK-MEL-28 melanoma = system: SK-MEL-28 melanoma
COLO 205 colon = system: COLO 205 colon
PC-3 prostate = system: PC-3 prostate
OVCAR-5 ovarian = system: OVCAR-5 ovarian
BT-549 breast = system: BT-549 breast
UACC-62 melanoma = system: UACC-62 melanoma
OVCAR-3 ovarian = system: OVCAR-3 ovarian
A549 NSCLC = system: A549 NSCLC
A498 renal = system: A498 renal
SK-MEL-2 melanoma = system: SK-MEL-2 melanoma
CAKI-1 renal = system: CAKI-1 renal
HOP-92 NSCLC = system: HOP-92 NSCLC
SK-MEL-5 melanoma = system: SK-MEL-5 melanoma
MDA-MB-468 breast = system: MDA-MB-468 breast
MDA-MB-435 = system: MDA-MB-435
MALME-3M melanoma = system: MALME-3M melanoma
SF-295 CNS = system: SF-295 CNS
M14 melanoma = system: M14 melanoma
UACC-257 melanoma = system: UACC-257 melanoma
NCI-H226 lung = system: NCI-H226 lung
ACHN renal = system: ACHN renal
HOP-62 NSCLC = system: HOP-62 NSCLC
SF-539 CNS = system: SF-539 CNS
CCRF-CEM leukemia = system: CCRF-CEM leukemia
UO-31 renal = system: UO-31 renal
IGROV1 ovarian = system: IGROV1 ovarian
T-47D breast = system: T-47D breast
SR leukemia = system: SR leukemia
HCC-2998 colon = system: HCC-2998 colon
SN12C renal = system: SN12C renal
NCI-H23 lung = system: NCI-H23 lung
K-562 leukemia = system: K-562 leukemia
U251 CNS = system: U251 CNS
EKVX NSCLC = system: EKVX NSCLC
HCT-15 colon = system: HCT-15 colon
786-0 renal = system: 786-0 renal
OVCAR-4 ovarian = system: OVCAR-4 ovarian
SF-268 CNS = system: SF-268 CNS
HT29 colon = system: HT29 colon
SK-OV-3 ovarian = system: SK-OV-3 ovarian

Cc1cc(=O)oc2cc(OCCCOc3ccc(/C=C/C(=O)Nc4ccccc4N)cc3)ccc12
GI50 (NCI-H460 lung): 1.79 µM | TGI (NCI-H460 lung): > 100 µM | GI50 (MDA-MB-231 breast): 3.33 µM | TGI (MDA-MB-231 breast): > 100 µM | GI50 (OVCAR-8 ovarian): 4.18 µM | TGI (OVCAR-8 ovarian): > 100 µM | GI50 (NCI-H522 lung): 2.79 µM | TGI (NCI-H522 lung): > 100 µM | GI50 (DU-145 prostate): 4.71 µM | TGI (DU-145 prostate): > 100 µM | GI50 (MCF7 breast): 0.702 µM | TGI (MCF7 breast): > 100 µM | GI50 (SNB-19 CNS): 3.72 µM | TGI (SNB-19 CNS): > 100 µM | GI50 (RXF 393 renal): 4.16 µM | TGI (RXF 393 renal): > 100 µM | GI50 (RPMI-8226 leukemia): 0.276 µM | TGI (RPMI-8226 leukemia): 2.35 µM | GI50 (KM12 colon): 3.9 µM | TGI (KM12 colon): > 100 µM | GI50 (HCT-116 colon): 2.24 µM | TGI (HCT-116 colon): > 100 µM | GI50 (SW-620 colon): 3.6 µM | TGI (SW-620 colon): > 100 µM | GI50 (SK-MEL-28 melanoma): 3.6 µM | TGI (SK-MEL-28 melanoma): > 100 µM | GI50 (COLO 205 colon): 2.14 µM | TGI (COLO 205 colon): 5.81 µM | GI50 (PC-3 prostate): 3.07 µM | TGI (PC-3 prostate): > 100 µM | GI50 (OVCAR-5 ovarian): 4.34 µM | TGI (OVCAR-5 ovarian): > 100 µM | GI50 (BT-549 breast): 0.923 µM | TGI (BT-549 breast): 3.27 µM | GI50 (UACC-62 melanoma): 2.79 µM | TGI (UACC-62 melanoma): > 100 µM | GI50 (OVCAR-3 ovarian): 2.51 µM | TGI (OVCAR-3 ovarian): > 100 µM | GI50 (A549 NSCLC): 3.31 µM | TGI (A549 NSCLC): > 100 µM | GI50 (A498 renal): 2.34 µM | TGI (A498 renal): 6.7 µM | GI50 (SK-MEL-2 melanoma): 3.78 µM | TGI (SK-MEL-2 melanoma): > 100 µM | GI50 (CAKI-1 renal): 3.38 µM | TGI (CAKI-1 renal): > 100 µM | GI50 (HOP-92 NSCLC): 3.91 µM | TGI (HOP-92 NSCLC): > 100 µM | GI50 (SK-MEL-5 melanoma): 0.716 µM | TGI (SK-MEL-5 melanoma): 2.06 µM | GI50 (MDA-MB-468 breast): 1.94 µM | TGI (MDA-MB-468 breast): 8.14 µM | GI50 (MDA-MB-435): 4.42 µM | TGI (MDA-MB-435): > 100 µM | GI50 (MALME-3M melanoma): 3.27 µM | TGI (MALME-3M melanoma): > 100 µM | GI50 (SF-295 CNS): 3.42 µM | TGI (SF-295 CNS): > 100 µM | GI50 (M14 melanoma): 3.16 µM | TGI (M14 melanoma): > 100 µM | GI50 (UACC-257 melanoma): 3.24 µM | TGI (UACC-257 melanoma): > 100 µM | GI50 (NCI-H226 lung): 2.45 µM | TGI (NCI-H226 lung): > 100 µM | GI50 (ACHN renal): 4.5 µM | TGI (ACHN renal): > 100 µM | GI50 (HOP-62 NSCLC): 4.93 µM | TGI (HOP-62 NSCLC): > 100 µM | GI50 (SF-539 CNS): 2.22 µM | TGI (SF-539 CNS): > 100 µM | GI50 (CCRF-CEM leukemia): 0.31 µM | TGI (CCRF-CEM leukemia): 1.91 µM | GI50 (UO-31 renal): 0.775 µM | TGI (UO-31 renal): > 100 µM | GI50 (IGROV1 ovarian): 1.28 µM | TGI (IGROV1 ovarian): > 100 µM | GI50 (T-47D breast): 0.749 µM | TGI (T-47D breast): > 100 µM | GI50 (SR leukemia): 1.81 µM | TGI (SR leukemia): > 100 µM | GI50 (HCC-2998 colon): 3.17 µM | TGI (HCC-2998 colon): > 100 µM | GI50 (SN12C renal): 2.22 µM | TGI (SN12C renal): > 100 µM | GI50 (NCI-H23 lung): 3.64 µM | TGI (NCI-H23 lung): > 100 µM | GI50 (K-562 leukemia): 0.817 µM | TGI (K-562 leukemia): > 100 µM | GI50 (U251 CNS): 5.49 µM | TGI (U251 CNS): > 100 µM | GI50 (EKVX NSCLC): 3.5 µM | TGI (EKVX NSCLC): > 100 µM | GI50 (HCT-15 colon): 2.4 µM | TGI (HCT-15 colon): > 100 µM | GI50 (786-0 renal): 3.13 µM | TGI (786-0 renal): > 100 µM | GI50 (OVCAR-4 ovarian): 2.82 µM | TGI (OVCAR-4 ovarian): > 100 µM | GI50 (SF-268 CNS): 1.95 µM | TGI (SF-268 CNS): > 100 µM | GI50 (HT29 colon): 4.8 µM | TGI (HT29 colon): > 100 µM | GI50 (SK-OV-3 ovarian): 5.29 µM | TGI (SK-OV-3 ovarian): > 100 µM
